Experimental data reported in patent publication US10239832B2, “N-(1-hydroxy-3-(pyrrolidinyl)propan-2-yl)pyrrolidine-3-carboxamide derivatives as glucosylceramide synthase inhibitors” (BIOMARIN PHARMACEUTICAL INC., priority 2013, dated 2019).

target: T1, GCS (Canis lupus familiaris, UniProt A0A8I3MXG6); experiment: GCS enzymatic assay (MDCK cell lysate, NBD-ceramide to glucosylceramide, LC/MS); assay type: biochemical, canine; conditions: Table 2; class symbols A, B, C; the table does not say which of the assays; read-out: Data Range (IC50 values)
T1 construct: endogenous in cells; host or cells: MDCK (Madin-Darby canine kidney) cells, whole-cell lysate
T1 sequence (A0A8I3MXG6 1-394): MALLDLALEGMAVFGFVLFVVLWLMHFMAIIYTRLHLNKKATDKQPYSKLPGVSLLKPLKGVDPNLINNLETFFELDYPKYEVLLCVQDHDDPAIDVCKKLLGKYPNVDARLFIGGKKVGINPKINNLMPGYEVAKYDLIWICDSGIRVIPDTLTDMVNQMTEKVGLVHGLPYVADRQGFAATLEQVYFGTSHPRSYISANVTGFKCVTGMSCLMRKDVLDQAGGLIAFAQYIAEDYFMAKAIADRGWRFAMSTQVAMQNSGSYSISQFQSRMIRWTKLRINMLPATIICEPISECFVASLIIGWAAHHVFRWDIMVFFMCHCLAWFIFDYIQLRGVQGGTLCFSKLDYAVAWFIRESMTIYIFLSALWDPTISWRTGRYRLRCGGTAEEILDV
Method: This assay was modified based on the study by Larsen et al. (J. Lipid Res. 2011, 53, 282). Madin-Darby canine kidney (MDCK) cell lysate was prepared using M-PER Mammalian Protein Extraction Reagent (Thermal Scientific) in the presence of a protease inhibitor cocktail (Roche). Protein concentration was determined using BCA assay kit (Pierce). […] 0.1% DMSO was used as mock treatment or control. The reaction was terminated by adding 100 μL acetonitrile solution and subjected to LC/MS analysis.
The quantitative analysis of NBD-Ceramide and glucosylceramide was performed on a Shimadzu ultra-fast liquid chromatography (Shimadzu, Japan) coupled with API 4000 triple quadrupole mass spectrometer (Applied Biosystems, Concord, Ontario, Canada). Sample separation was conducted on a Waters Xbridge™ BEH130 C18, 100 mm×4.6 mm i.d, 3.5 μm (Milford, Mass., USA). The mobile phase consisted of water and acetonitrile supplemented with 0.1% formic acid (v/v). The flow rate was 1.0 mL/min. The initial mobile phase was 20% acetonitrile and was ramped in a linear fashion to 50% acetonitrile in 0.4 min. From 0.4 to 1.5 min, the gradient was ramped to 98% acetonitrile, and then was held at […] until 8.0 min. Acetonitrile was reset to 20% in 1.5 min, and maintained until 10.0 min. The total run time was 10.0 min. The MS/MS detection was performed in ESI positive mode. The mass transition of NBD-Ceramide was m/z 576.36→558.40 under the collision energy of 15 V, and the mass transition of glucosylceramide was m/z 738.35→558.40 under 21V collision energy. The cell lysate was diluted with equal volume of acetonitrile. Aliquots of 50 μL diluted samples were added to 1.5 mL tubes, and 100 μL of acetonitrile containing internal standard (100 ng/mL tolbutamide) were added for protein precipitation. The mixture were vortexed and then centrifuged at 13000 rpm for 10 min. 70 μL of supernatant were mixed with 140 μL of H2O and the final solution were injected for LC/MS/MS analysis and IC50's and/or percent inhibitions calculated.

Row | IC50 | SMILES
1 | 0.03 to 0.1 µM | O=C(N[C@H](CN1CCCC1)[C@H](O)c1ccc(OC2CC2)nc1)[C@@H]1CCN(c2ccc(Cl)cc2)C1 [Compound 13, (R)-1-(4-chlorophenyl)-N-((1R,2R)-1-(6-cyclopropoxypyridin-3-yl)-1-hydroxy-3-(pyrrolidin-1-yl)propan-2-yl)pyrrolidine-3-carboxamide]
2 | 0.001 to 0.03 µM | O=C(N[C@H](CN1CCCC1)[C@H](O)c1ccc2c(c1)OCCO2)C1CCN(c2ccc3cc(F)ccc3c2)C1 (stereo partly drawn) [Compound 14C, N-((1R,2R)-1-(2,3-dihydrobenzo[b][1,4]dioxin-6-yl)-1-hydroxy-3-(pyrrolidin-1-yl)propan-2-yl)-1-(6-fluoronaphthalen-2-yl)pyrrolidine-3-carboxamide]

same assay, conditions: Table 2; class symbols D, E, F, NA (not active); the table does not say which of the assays

Row | SMILES | Data Range (% inhibition)
3 | O=C(N[C@H](CN1CCCC1)[C@H](O)c1ccc2c(c1)OCCO2)[C@H]1CCN(CC2(O)CCOCC2)C1 [Compound 5E, (S)-N-((1R,2R)-1-(2,3-dihydrobenzo[b][1,4]dioxin-6-yl)-1-hydroxy-3-(pyrrolidin-1-yl)propan-2-yl)-1-((4-hydroxytetrahydro-2H-pyran-4-yl)methyl)pyrrolidine-3-carboxamide] | F (1-49% (or less than 50%))
4 | O=C(N[C@H](CN1CCCC1)[C@H](O)c1ccc2c(c1)OCCO2)[C@@H]1CCN(C2CCOCC2)C1 [Compound 9, (R)-N-((1R,2R)-1-(2,3-dihydrobenzo[b][1,4]dioxin-6-yl)-1-hydroxy-3-(pyrrolidin-1-yl)propan-2-yl)-1-(tetrahydro-2H-pyran-4-yl)pyrrolidine-3-carboxamide] | NA (not active—a negative value was generated for % inhibition)
5 | O=C(N[C@H](CN1CCCC1)[C@H](O)c1ccc2c(c1)OCCO2)[C@H]1CCN(C2CCOCC2)C1 [Compound 9E, (S)-N-((1R,2R)-1-(2,3-dihydrobenzo[b][1,4]dioxin-6-yl)-1-hydroxy-3-(pyrrolidin-1-yl)propan-2-yl)-1-(tetrahydro-2H-pyran-4-yl)pyrrolidine-3-carboxamide] | NA (not active—a negative value was generated for % inhibition)
6 | O=C(N[C@H](CN1CCCC1)[C@H](O)c1ccc2c(c1)OCCO2)C1CCN(C2CCCC2)C1 (stereo partly drawn) [Compound 11, 1-cyclopentyl-N-((1R,2R)-1-(2,3-dihydrobenzo[b][1,4]dioxin-6-yl)-1-hydroxy-3-(pyrrolidin-1-yl)propan-2-yl)pyrrolidine-3-carboxamide] | NA (not active—a negative value was generated for % inhibition)
7 | O=C(N[C@H](CN1CCCC1)[C@H](O)c1ccc(OC2CC2)nc1)[C@H]1CCN(c2ccc(Cl)cc2)C1 [Compound 13C, (S)-1-(4-chlorophenyl)-N-((1R,2R)-1-(6-cyclopropoxypyridin-3-yl)-1-hydroxy-3-(pyrrolidin-1-yl)propan-2-yl)pyrrolidine-3-carboxamide] | F (1-49% (or less than 50%))
8 | O=C(N[C@H](CN1CCCC1)[C@H](O)c1ccc2c(c1)OCCO2)[C@@H]1CCN(Cc2ccc(Cl)cc2)C1 [Compound 15, (R)-1-(4-chlorobenzyl)-N-((1R,2R)-1-(2,3-dihydrobenzo[b][1,4]dioxin-6-yl)-1-hydroxy-3-(pyrrolidin-1-yl)propan-2-yl)pyrrolidine-3-carboxamide] | F (1-49% (or less than 50%))
9 | O=C(N[C@H](CN1CCCC1)[C@H](O)c1ccc2c(c1)OCCO2)[C@H]1CCN(c2nccs2)C1 [Compound 17D, (S)-N-((1R,2R)-1-(2,3-dihydrobenzo[b][1,4]dioxin-6-yl)-1-hydroxy-3-(pyrrolidin-1-yl)propan-2-yl)-1-(thiazol-2-yl)pyrrolidine-3-carboxamide] | NA (not active—a negative value was generated for % inhibition)
10 | O=C(N[C@H](CN1CCCC1)[C@H](O)c1ccc2c(c1)OCCO2)[C@@H]1CCN(c2ccc(OC3CC3)c(Cl)c2)C1 [Compound 20, (R)-1-(3-chloro-4-cyclopropoxyphenyl)-N-((1R,2R)-1-(2,3-dihydrobenzo[b][1,4]dioxin-6-yl)-1-hydroxy-3-(pyrrolidin-1-yl)propan-2-yl)pyrrolidine-3-carboxamide] | F (1-49% (or less than 50%))
11 | O=C(N[C@H](CN1CCCC1)[C@H](O)c1ccc2c(c1)OCCO2)[C@H]1CCN(c2ccc(OC3CC3)c(Cl)c2)C1 [Compound 20E, (S)-1-(3-chloro-4-cyclopropoxyphenyl)-N-((1R,2R)-1-(2,3-dihydrobenzo[b][1,4]dioxin-6-yl)-1-hydroxy-3-(pyrrolidin-1-yl)propan-2-yl)pyrrolidine-3-carboxamide] | F (1-49% (or less than 50%))
12 | O=C(N[C@H](CN1CCCC1)[C@H](O)c1ccc2c(c1)OCCO2)C1CCN(CCc2ccc(Cl)cc2)C1 (stereo partly drawn) [Compound 21E, 1-(4-chlorophenethyl)-N-((1R,2R)-1-(2,3-dihydrobenzo[b][1,4]dioxin-6-yl)-1-hydroxy-3-(pyrrolidin-1-yl)propan-2-yl)pyrrolidine-3-carboxamide] | F (1-49% (or less than 50%))

Other lines, results leading:

Row | Data Range (% inhibition) | SMILES
13 | F (1-49% (or less than 50%)) | O=C(N[C@H](CN1CCCC1)[C@H](O)c1ccc(OC2CC2)c(Cl)c1)C1CCN(c2ccc(C(F)(F)F)cc2)C1 (stereo partly drawn) [Compound 6, N-((1R,2R)-1-(3-chloro-4-cyclopropoxyphenyl)-1-hydroxy-3-(pyrrolidin-1-yl)propan-2-yl)-1-(4-(trifluoromethyl)phenyl)pyrrolidine-3-carboxamide]
14 | F (1-49% (or less than 50%)) | O=C(N[C@H](CN1CCCC1)[C@H](O)c1ccc2c(c1)OCCO2)C1CCN(C2CCOCC2)C1 (stereo partly drawn) [Compound 9D, N-((1R,2R)-1-(2,3-dihydrobenzo[b][1,4]dioxin-6-yl)-1-hydroxy-3-(pyrrolidin-1-yl)propan-2-yl)-1-(tetrahydro-2H-pyran-4-yl)pyrrolidine-3-carboxamide]
15 | D (75-100%) | O=C(N[C@H](CN1CCCC1)[C@H](O)c1ccc(OC2CC2)c(Cl)c1)C1CCN(c2ccc(OC(F)(F)F)cc2)C1 (stereo partly drawn) [Compound 10, N-((1R,2R)-1-(3-chloro-4-cyclopropoxyphenyl)-1-hydroxy-3-(pyrrolidin-1-yl)propan-2-yl)-1-(4-(trifluoromethoxy)phenyl)pyrrolidine-3-carboxamide]
16 | F (1-49% (or less than 50%)) | O=C(N[C@H](CN1CCCC1)[C@H](O)c1ccc2c(c1)OCCO2)C1CCN(Cc2ccc(Cl)cc2)C1 (stereo partly drawn) [Compound 15C]
17 | F (1-49% (or less than 50%)) | O=C(N[C@H](CN1CCCC1)[C@H](O)c1ccc2c(c1)OCCO2)[C@H]1CCN(Cc2ccc(Cl)cc2)C1 [Compound 15D, (S)-1-(4-chlorobenzyl)-N-((1R,2R)-1-(2,3-dihydrobenzo[b][1,4]dioxin-6-yl)-1-hydroxy-3-(pyrrolidin-1-yl)propan-2-yl)pyrrolidine-3-carboxamide]
18 | E (50-74% (or less than 75%)) | O=C(N[C@H](CN1CCCC1)[C@H](O)c1ccc2c(c1)OCCO2)[C@@H]1CCN(c2nccs2)C1 [Compound 17, (R)-N-((1R,2R)-1-(2,3-dihydrobenzo[b][1,4]dioxin-6-yl)-1-hydroxy-3-(pyrrolidin-1-yl)propan-2-yl)-1-(thiazol-2-yl)pyrrolidine-3-carboxamide]
19 | E (50-74% (or less than 75%)) | O=C(N[C@H](CN1CCCC1)[C@H](O)c1ccc2c(c1)OCCO2)C1CCN(c2ccc(Cl)c(OC3CC3)c2)C1 (stereo partly drawn) [Compound 19]
20 | E (50-74% (or less than 75%)) | O=C(N[C@H](CN1CCCC1)[C@H](O)c1ccc2c(c1)OCCO2)C1CCN(c2ccc(OC3CC3)c(Cl)c2)C1 (stereo partly drawn) [Compound 20D]
21 | F (1-49% (or less than 50%)) | O=C(N[C@H](CN1CCCC1)[C@H](O)c1ccc2c(c1)OCCO2)[C@@H]1CCN(CCc2ccc(Cl)cc2)C1 [Compound 21, (R)-1-(4-chlorophenethyl)-N-((1R,2R)-1-(2,3-dihydrobenzo[b][1,4]dioxin-6-yl)-1-hydroxy-3-(pyrrolidin-1-yl)propan-2-yl)pyrrolidine-3-carboxamide]
